Target: T1, Aromatase (Homo sapiens, UniProt P11511)
T1 sequence (P11511 whole entry): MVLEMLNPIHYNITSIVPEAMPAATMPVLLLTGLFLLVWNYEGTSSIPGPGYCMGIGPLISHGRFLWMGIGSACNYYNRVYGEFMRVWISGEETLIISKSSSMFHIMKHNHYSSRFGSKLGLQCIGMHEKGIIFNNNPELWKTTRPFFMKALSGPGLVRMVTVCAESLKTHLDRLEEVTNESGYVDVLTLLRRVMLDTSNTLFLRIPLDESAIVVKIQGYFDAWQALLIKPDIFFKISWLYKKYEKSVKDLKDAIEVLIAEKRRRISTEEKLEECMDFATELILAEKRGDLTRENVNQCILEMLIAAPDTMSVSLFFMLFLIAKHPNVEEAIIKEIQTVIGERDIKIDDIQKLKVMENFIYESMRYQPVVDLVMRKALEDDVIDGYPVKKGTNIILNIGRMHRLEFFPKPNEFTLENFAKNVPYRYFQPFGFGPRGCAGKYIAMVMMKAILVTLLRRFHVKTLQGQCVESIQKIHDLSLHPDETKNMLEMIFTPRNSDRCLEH
Experiment: Inhibition of aromatase from human placental microsomes

Compound | IC50 [µM]
COc1c(-c2ccc(O)c(O)c2)oc2cc(O)c(C/C=C(\C)CCC=C(C)C)c(O)c2c1=O | > 88.4
CC(C)=CCc1cc([C@@H]2CCc3ccc(O)cc3O2)ccc1O | > 129
O=c1ccc2c(o1)CCCC2 | > 266
Oc1ccc([C@@H]2CCc3ccc(O)cc3O2)cc1 | > 165
CC1=C[C@@H]2c3c(O)cc(-c4cc5ccc(O)cc5o4)cc3O[C@]3(c4ccc(O)cc4O)Oc4cc(O)ccc4[C@@H](C1)C23 (some centres undefined) [ALBANOL A] | 7.5
COc1cc(O)ccc1CCCc1ccc(O)c(CC=C(C)C)c1 | > 123
Oc1ccc(CCCc2ccc(O)cc2O)cc1 | > 164
CC(C)=CCc1cc(C2CC(=O)c3c(O)cc(O)cc3O2)ccc1O (centres undefined) | 0.4
CC(C)=CCc1c(O)ccc(CCCc2ccc(O)cc2)c1O | > 128
CC(C)=CCC/C(C)=C/Cc1c(O)cc2oc(-c3ccc(O)c(O)c3)c(O)c(=O)c2c1O | > 91.2
CC(C)(O)C1Cc2c(ccc3c2O[C@H](c2ccc(O)cc2O)CC3=O)O1 (some centres undefined) | 0.1
CC(C)=CCc1c(O)ccc2c1O[C@H](c1ccc(O)cc1O)CC2=O | 3.4
CC(C)=CCc1cc([C@H]2Oc3c(CC=C(C)C)c(O)cc(O)c3C(=O)[C@@H]2O)ccc1O | > 94.2
O=C(/C=C/c1ccc(O)cc1O)c1ccc(O)cc1O | > 147

The next lines start with the values.

IC50 [µM] | Compound
31.1 | CC(C)=CCc1cc2cc(-c3cc(O)cc(O)c3)oc2cc1O [MORACIN N]
31.1 | CC(C)=CCc1c(O)cc(O)cc1-c1cc2ccc(O)cc2o1 [DEMETHYLMORACIN I]
> 123 | COc1cc(O)cc(-c2cc3ccc(O)cc3o2)c1CC=C(C)C [MORACIN I]
> 162 | CC(C)(O)[C@@H]1Cc2cc3ccc(=O)oc3cc2O1 [MARMESIN]
30 | COc1ccc(CCCc2ccc(O)cc2)c(O)c1 [BROUSSONIN A]
> 123 | CC(C)=CCc1c(O)ccc(C(=O)/C=C/c2ccc(O)cc2)c1O [ISOBAVACHALCONE]
> 123 | CC(C)=CCc1cc2c(cc1O)O[C@H](c1ccc(O)cc1)CC2=O [BAVACHIN]
> 118 | CC(C)=CCc1cc(C(=O)/C=C/c2ccc(O)c(O)c2)c(O)cc1O [BROUSSOCHALCONE A]
9.7 | CC(C)=CCc1cc(-c2oc3c(CC=C(C)C)c(O)cc(O)c3c(=O)c2O)ccc1O [BROUSSOFLAVONOL F]
> 155 | COc1cc(O)ccc1CCCc1ccc(O)cc1 [BROUSSONIN B]
> 123 | CC(C)=CCc1cc(C(=O)/C=C/c2ccc(O)cc2)c(O)cc1O [BROUSSOCHALCONE B]
> 108 | CC(C)=CCc1c(O)cc2oc(-c3ccc(O)c(O)c3)c(O)c(=O)c2c1O [GANCAONIN P]
> 132 | COc1ccc(CCCc2ccc(O)c(OC)c2)c(OC)c1 [BROUSSONIN F]
> 139 | O=C1c2c(O)cc(O)cc2O[C@H](c2ccc(O)cc2)[C@H]1O [DIHYDROKAEMPFEROL]
> 139 | COc1ccc(CCCc2ccc(OC)c(O)c2)c(O)c1 [BROUSSONIN E]
0.1 | CC(C)=CCc1cc(-c2oc3cc(O)cc(O)c3c(=O)c2O)ccc1O [ISOLICOFLAVONOL]
> 204 | CC1(C)C[C@H](O)C[C@@]2(C)OC(=O)C=C12 [LOLIOLIDE]
> 130 | CC1(C)C=Cc2c(O)cc(-c3cc4ccc(O)cc4o3)cc2O1 [MORACIN D]
> 131 | O=C1c2c(O)cc(O)cc2O[C@H](c2ccc(O)cc2O)[C@H]1O [DIHYDROMORIN]
> 165 | Oc1cc(O)cc(-c2cc3ccc(O)cc3o2)c1 [MORACIN M]

Reference: ChEMBL document CHEMBL1156356, “Aromatase inhibitors from Broussonetia papyrifera” (J Nat Prod, 2001)
